Experimental data published in paper PMC10827914 (Cellular and Molecular Life Sciences: CMLS, 2024).

Tests used:
[1] = tested on: membrane CD13 expressed by HUVEC; experiment: Competitive binding of anti-CD13 mAb WM15 to HUVEC by flow cytometry; parameters: species or system human
Description: HUVEC were seeded in 96-well U-bottom polystyrene microtiter plates at a density of 2 × 10^5 cells in 100 µL DPBS supplemented with 5% normal human serum (NHS) and mixed with a mixture of peptide G4 ranging from 0 to 10 µM and mAb WM15 (0 or 0.13 nM). The chromogranin A429-439 peptide fragment (CgA429-439) was used instead of G4 as a control. After 1 h of incubation at 4 °C, the cells were washed and resuspended in 100 µL of DPBS containing 5% NHS and 1 µg/mL of FITC-labeled goat anti-mouse IgG secondary antibody. Cells were subsequently incubated for 1 h at 4 °C, washed, and analyzed by flow cytometry. All flow cytometry data were collected on a CytoFLEX S flow cytometer (Beckman Coulter) and analyzed using FlowJo software 10 (BD BioScience).
Fig. 2 G4 recognizes soluble forms of CD13, with higher affinity and selectivity than bestatin, and the membrane forms expressed on the surface of HUVEC cells. A Inhibitory effects of G4 and bestatin on the enzymatic activities of different aminopeptidases (rCD13, APA, and APB). Various amounts of G4 or bestatin were incubated with rCD13 (0.2 µg/mL in 60 mM Tris–HCl pH 7.4), APA (0.2 µg/mL in 60 mM Tris–HCl pH 7.4, 50 mM calcium chloride, 200 mM sodium chloride) or APB (0.2 µg/mL in 60 mM Tris–HCl pH 7.4, 100 mM potassium chloride) and the corresponding substrates at 0.1 mM (L-alanine-7-amido-4-methylcoumarin for rCD13, L-glutamic acid γ-(7-amido-4-methylcoumarin) for APA, and L-arginine-7-amido-4-methylcoumarin for APB). The mixtures were incubated for 30 min at 37 °C, and the cleavage of each substrate was monitored by measuring the fluorescence of methylcoumarin (λex 341 nm; λem 441 nm) using an Infinite 200 PRO plate reader (Tecan). Three independent experiments were performed for each enzyme. […] Substrate cleavage by sCD13 dissociated from mAb WM15 was then monitored by measuring the absorbance at 405 nm in each well using a plate reader (Bio-Rad). […] After incubation for 60 min at 4 °C, the cells were washed and analyzed by flow cytometry. Data are expressed as the percentage of counts vs. fluorescence intensity units […]

WEHI-164 fibrosarcoma = experiment: Antitumor activity in WEHI-164 fibrosarcoma-bearing mice; type: in vivo
Description: Female BALB/c mice (Charles River Laboratories, Calco, Italy), weighing 16–18 g, were subcutaneously injected into the left flank of 10^6 WEHI-164 cells (ATCC, cat. CRL-1751, Lot. 63,682,839). Dose-finding experiments were performed with groups of six mice treated with G4-TNF (4, 20, or 100 pg/dose in 100 μL of 0.9% sodium chloride containing 100 µg/ml HSA, intraperitoneally injected on day 5) or vehicle. Tumor growth was monitored daily by measuring tumor volume with calipers, as previously described. The animals were sacrificed before the tumor diameter reached 1.0–1.5 cm. To test whether the antitumor activity of G4-TNF was mediated by CD13, tumor-bearing mice (6 animals/group) were treated with a single injection of G4-TNF (100 pg/dose, i.p.) in combination with peptide CNGRC (100 µg/dose) or anti-CD13 mAb R3-63 (25 µg/dose, given 1.5 h i.p. before administration of G4-TNF) 5 days after tumor implantation.
Fig. 3 Effect of G4-TNF on tumor growth and body weight of mice bearing WEHI-164 fibrosarcomas. A Mice bearing subcutaneous WEHI-164 tumors (5–6 mice/groups) were treated 5 days after tumor implantation with a single intraperitoneal injection of G4-TNF (0, 4, 20, or 100 pg). Tumor volume and body weight after treatment were monitored daily. B Effect of mAb R3-63 (anti-murine CD13 antibody, 25 µg) and CNGRC peptide (100 µg) on the antitumor activity of G4-TNF (100 pg) (5–6 mice/group). The arrows indicate the time of treatment. *P < 0.05; **P < 0.01, by Mann–Whitney analysis of the area under the curve for each tumor, with the GraphPad Prism software (mean ± SEM)
A) Mice bearing subcutaneous WEHI-164 tumors (6 mice/groups), were treated 5-6 days after tumor implantation with a single intraperitoneal injection of murine NGR-TNF (0, 25, 50, or 100 pg). Tumor volume and body weight after treatment were monitored daily.
B) Effect of murine TNF (50 pg) on tumor growth and body weight. The arrows indicate the time of treatment (mean ± SEM).

Substance: VGCARRYCS-TNF [G4-TNF, recombinant murine TNF fused to the C-terminus of G4]
- Competition of mAb WM15 binding to HUVEC (in words) ([1]; Fig. 4C and 4D): competed the binding of mAb WM15 to endothelial cells
- Competition of mAb WM15 binding to HUVEC (in words) ([1]; competitor 5 µM, mAb WM15 0.13 nM, 60 min, 4 °C, Supplementary Fig. S4D): competed with the binding of mAb WM15 (anti-CD13) to HUVEC to an extent similar to that observed with G4
- Body weight and clinical signs of toxicity (WEHI-164 fibrosarcoma; mice after treatment with 4, 20 or 100 pg i.p.): No loss of body weight and no other clinical signs of toxicity
- Antitumor effect (tumor growth) (WEHI-164 fibrosarcoma; single intraperitoneal injection of 100 pg, 5 days after tumor implantation): significant antitumor effects
